According to US20170306042A1, “IMMUNOGENIC MODULATION BY ENDOCRINE DEPRIVATION THERAPY IMPROVES SENSITIVITY OF TUMOR CELLS TO IMMUNE MEDIATED LYSIS” (The United States of America, as represented by the …, priority 2014, published 2017):

Legend:
Type in all cases: cell-based, human
LNCaP cells = test: Apoptosis PCR array (96 genes) in LNCaP cells
Protocol: The properties of ADT that induce immunogenic modulation and sensitize prostate tumor cells to immune-mediated attack are novel and have not been previously described. It was hypothesized that modulation of apoptotic genes might be part of the mechanism of action of ADT-induced CTL sensitization. […] In particular, gene expression was assessed using an apoptosis PCR array (SA Biosciences, Valencia, Calif.) as per the manufacturer's instructions. RT-PCR was performed on the 7300 Real-Time PCR System (Applied Biosystems, Carlsbad, Calif.). Where indicated, values were calculated as expression relative to GAPDH, as previously described (Ardiani et al., Cancer Res., 74(7): 1945-1957 (2014))

[1] = test system: ZR75-1, MCF, BT549 and HCC1806 cells; test: Viability of breast cancer cells treated with tamoxifen; settings: 1 μM
Protocol: ZR75-1 (ER+PR+Her2+), MCF (ER+PR+Her2−), BT549 (ER−PR−Her2−), and HCC1806 (ER−PR−Her2−) cells were treated with vehicle or 1 μM tamoxifen to replicate intratumoral concentrations. FIGS. 12A-12D illustrate the fold increase in cell number following treatment. Viability never diminished more than 10% at any given time point.

ZR75-1 cells = test: CTL assay after tamoxifen, ZR75-1 targets; settings: ZR75-1 (ER+); 1 μM, 72 hours; CEA-specific or MUC-1 specific CTLs; E:T 30:1
Protocol: (§1) To determine sensitivity to immune-mediated killing, breast cancer cells treated with vehicle or 1 μM tamoxifen for 72 hours and then used as targets in a CTL assay using CEA-specific or MUC-1 specific CTLs as effector cells at an E:T ratio of 30:1.

MCF-7 cells = test: CTL assay after tamoxifen, MCF-7 targets; settings: MCF-7 (ER+); 1 μM, 72 hours; CEA-specific or MUC-1 specific CTLs; E:T 30:1
Protocol: as §1

BT549 cells = test: CTL assay after tamoxifen, BT549 targets; settings: BT549 (ER−); 1 μM, 72 hours; E:T 30:1
Protocol: as §1

HCC1806 cells = test: CTL assay after tamoxifen, HCC1806 targets; settings: HCC1806 (ER−); 1 μM, 72 hours; E:T 30:1
Protocol: as §1

[2] = apoptosis PCR array, negative = down-regulated

SMILES	number of 96 apoptosis genes down-regulated greater than 2-fold (LNCaP cells; RT-PCR array)	number of 96 apoptosis genes up-regulated greater than 2-fold (LNCaP cells; RT-PCR array)	CASP1 (Caspase 1) gene expression change (LNCaP cells; [2]) [fold]	CASP5 gene expression change (LNCaP cells; [2]) [fold]	CASP8 gene expression change (LNCaP cells; [2]) [fold]	CD27 gene expression change (LNCaP cells; [2]) [fold]	DAPK1 gene expression change (LNCaP cells; [2]) [fold]	HRK gene expression change (LNCaP cells; [2]) [fold]	NAIP gene expression change (LNCaP cells; [2]) [fold]	TNFRSF25 (DR3) gene expression change (LNCaP cells; [2]) [fold]	TNFSF8 gene expression change (LNCaP cells; [2]) [fold]	NAIP down-regulated (LNCaP cells; rounded from Table 1) [fold]	diminution of viability at any given time point [1] [%]	CTL-mediated lysis (ZR75-1 cells)	CTL-mediated lysis (MCF-7 cells)	CEA-specific killing (BT549 cells)	CEA-specific killing (HCC1806 cells)
C[C@]12CC[C@H](O)CC1=CC[C@@H]1[C@@H]2CC[C@]2(C)C(c3cccnc3)=CC[C@@H]12 [abiraterone]	14	11	−4.05	−4.22	−2.25	−3.50	−13.73	−8.57	−4.72	−7.41	−7.51	5					
CC/C(=C(\c1ccccc1)c1ccc(OCCN(C)C)cc1)c1ccccc1 [tamoxifen]													≤ 10	improved the CTL-mediated lysis	improved the CTL-mediated lysis	improved CEA-specific killing	improved CEA-specific killing
